In ChEMBL document CHEMBL1143678, “Self-assembling cannabinomimetics: supramolecular structures of N-alkyl amides” (J Nat Prod, 2007) one finds Ki data, which are given here for one compound.

This assay concerns the target Cannabinoid receptor 2 (Homo sapiens, UniProt P34972). Kind of assay: Displacement of [3H]CP-55940 from CB2 receptor expressed in HEK cells. The class given is cell-based, HEK293. In general terms: In a radioligand displacement assay an active substance lowers the binding of a labelled ligand.

Cannabinoid receptor 2, sequence (P34972 whole entry): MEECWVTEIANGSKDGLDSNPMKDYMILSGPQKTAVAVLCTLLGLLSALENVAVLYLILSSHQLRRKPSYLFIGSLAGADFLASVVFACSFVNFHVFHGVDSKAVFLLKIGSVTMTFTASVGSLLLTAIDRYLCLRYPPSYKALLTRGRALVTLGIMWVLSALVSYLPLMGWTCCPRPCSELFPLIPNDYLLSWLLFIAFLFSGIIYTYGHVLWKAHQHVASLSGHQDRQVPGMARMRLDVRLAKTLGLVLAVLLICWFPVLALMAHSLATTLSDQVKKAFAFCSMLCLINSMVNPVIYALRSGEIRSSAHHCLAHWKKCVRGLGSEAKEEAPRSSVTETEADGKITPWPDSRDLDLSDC

For the compound `CCCCCCC/C=C/C=C/C(=O)NCC(C)C`, the Ki stood at 52 nM.

The term Ki denotes the dissociation constant of the complex between target and ligand, obtained from inhibition or displacement. A high value points to a looser hold on the target.
